Assay results: the NIST ThermoML archive (doi:10.1016/j.jct.2003.11.008)
± gives the expanded uncertainty stated by the source.

What was measured:
[1] = excess molar enthalpy (molar enthalpy of mixing); xn = mol fraction of the nth substance listed; conditions: 318.15 K, 101.3 kPa, Liquid
[2] = xn = mol fraction of the nth substance listed; conditions: 318.15 K, 101.3 kPa, Liquid

CCCCCCCCCCCCCCC [pentadecane] + CCCOC(C)=O
Conditions	excess molar enthalpy [kcal/mol]	excess molar volume [m3/mol]
[1], x2 = 0.1056	0.137 ± 0.00263	–
[1], x2 = 0.1903	0.23 ± 0.00406	–
[1], x2 = 0.2687	0.303 ± 0.00502	–
[1], x2 = 0.3385	0.354 ± 0.00598	–
[1], x2 = 0.4042	0.389 ± 0.00645	–
[1], x2 = 0.4596	0.409 ± 0.00669	–
[1], x2 = 0.5101	0.421 ± 0.00693	–
[1], x2 = 0.5521	0.421 ± 0.00693	–
[1], x2 = 0.5935	0.416 ± 0.00693	–
[1], x2 = 0.634	0.405 ± 0.00669	–
[1], x2 = 0.674	0.389 ± 0.00645	–
[1], x2 = 0.715	0.369 ± 0.00598	–
[1], x2 = 0.7583	0.339 ± 0.00574	–
[1], x2 = 0.8027	0.301 ± 0.00502	–
[1], x2 = 0.8473	0.254 ± 0.0043	–
[1], x2 = 0.8921	0.193 ± 0.00335	–
[1], x2 = 0.9369	0.126 ± 0.00234	–
[1], x2 = 0.9732	0.0589 ± 0.00134	–
[2], x2 = 0.0878	–	3.42e-07 ± 1.7e-08
[2], x2 = 0.1416	–	5.35e-07 ± 1.8e-08
[2], x2 = 0.2112	–	7.4e-07 ± 1.9e-08
[2], x2 = 0.3035	–	9.75e-07 ± 2e-08
[2], x2 = 0.3749	–	1.102e-06 ± 2.1e-08
[2], x2 = 0.4446	–	1.188e-06 ± 2.1e-08
[2], x2 = 0.5048	–	1.254e-06 ± 2.1e-08
[2], x2 = 0.5631	–	1.259e-06 ± 2.1e-08
[2], x2 = 0.6193	–	1.238e-06 ± 2.1e-08
[2], x2 = 0.6657	–	1.213e-06 ± 2.1e-08
[2], x2 = 0.742	–	1.093e-06 ± 2.1e-08
[2], x2 = 0.8073	–	9.36e-07 ± 2e-08
[2], x2 = 0.8769	–	6.9e-07 ± 1.9e-08
[2], x2 = 0.9297	–	4.51e-07 ± 1.8e-08
[2], x2 = 0.9673	–	2.26e-07 ± 1.7e-08

CCCCCCCCCCCCCCCCC [heptadecane] + COC(C)=O
Conditions	excess molar enthalpy [kcal/mol]	excess molar volume [m3/mol]
[1], x2 = 0.113	0.176 ± 0.00311	–
[1], x2 = 0.2193	0.327 ± 0.0055	–
[1], x2 = 0.3028	0.434 ± 0.00717	–
[1], x2 = 0.3894	0.521 ± 0.00837	–
[1], x2 = 0.4626	0.576 ± 0.00932	–
[1], x2 = 0.5247	0.606 ± 0.0098	–
[1], x2 = 0.5794	0.615 ± 0.0098	–
[1], x2 = 0.6278	0.607 ± 0.0098	–
[1], x2 = 0.6655	0.593 ± 0.00956	–
[1], x2 = 0.6858	0.582 ± 0.00932	–
[1], x2 = 0.7195	0.56 ± 0.00908	–
[1], x2 = 0.7539	0.528 ± 0.0086	–
[1], x2 = 0.7883	0.489 ± 0.00789	–
[1], x2 = 0.8246	0.444 ± 0.00717	–
[1], x2 = 0.861	0.398 ± 0.00645	–
[1], x2 = 0.8938	0.346 ± 0.00574	–
[1], x2 = 0.9264	0.29 ± 0.00478	–
[1], x2 = 0.9502	0.236 ± 0.00406	–
[1], x2 = 0.9763	0.145 ± 0.00263	–
[2], x2 = 0.0872	–	4.73e-07 ± 3.5e-08
[2], x2 = 0.1719	–	9e-07 ± 3.9e-08
[2], x2 = 0.2901	–	1.422e-06 ± 4.4e-08
[2], x2 = 0.3832	–	1.742e-06 ± 4.7e-08
[2], x2 = 0.4682	–	1.916e-06 ± 4.9e-08
[2], x2 = 0.5391	–	1.999e-06 ± 5e-08
[2], x2 = 0.5988	–	2.022e-06 ± 5e-08
[2], x2 = 0.6524	–	1.981e-06 ± 4.9e-08
[2], x2 = 0.694	–	1.916e-06 ± 4.9e-08
[2], x2 = 0.7348	–	1.806e-06 ± 4.8e-08
[2], x2 = 0.7632	–	1.698e-06 ± 4.7e-08
[2], x2 = 0.8016	–	1.579e-06 ± 4.6e-08
[2], x2 = 0.827	–	1.455e-06 ± 4.5e-08
[2], x2 = 0.8469	–	1.363e-06 ± 4.4e-08
[2], x2 = 0.8704	–	1.246e-06 ± 4.3e-08
[2], x2 = 0.9208	–	9.07e-07 ± 3.9e-08
[2], x2 = 0.9545	–	5.89e-07 ± 3.6e-08
[2], x2 = 0.9807	–	2.74e-07 ± 3.4e-08

CCCCCCCCCCCCCCCCC [heptadecane] + CCCCCOC(C)=O
Conditions	excess molar enthalpy [kcal/mol]	excess molar volume [m3/mol]
[1], x2 = 0.0881	0.101 ± 0.00194	–
[1], x2 = 0.1856	0.188 ± 0.00335	–
[1], x2 = 0.2815	0.259 ± 0.0043	–
[1], x2 = 0.3678	0.306 ± 0.00502	–
[1], x2 = 0.4492	0.331 ± 0.0055	–
[1], x2 = 0.5202	0.339 ± 0.00574	–
[1], x2 = 0.5818	0.337 ± 0.0055	–
[1], x2 = 0.6246	0.326 ± 0.0055	–
[1], x2 = 0.6651	0.308 ± 0.00502	–
[1], x2 = 0.7105	0.285 ± 0.00478	–
[1], x2 = 0.7575	0.258 ± 0.0043	–
[1], x2 = 0.807	0.223 ± 0.00382	–
[1], x2 = 0.8571	0.18 ± 0.00311	–
[1], x2 = 0.905	0.13 ± 0.00239	–
[1], x2 = 0.9532	0.0725 ± 0.00151	–
[2], x2 = 0.1194	–	3.74e-07 ± 1.7e-08
[2], x2 = 0.1753	–	5.21e-07 ± 1.8e-08
[2], x2 = 0.2989	–	7.64e-07 ± 1.9e-08
[2], x2 = 0.3689	–	8.67e-07 ± 2e-08
[2], x2 = 0.421	–	9.1e-07 ± 2e-08
[2], x2 = 0.4657	–	9.43e-07 ± 2e-08
[2], x2 = 0.5081	–	9.6e-07 ± 2e-08
[2], x2 = 0.5464	–	9.64e-07 ± 2e-08
[2], x2 = 0.6072	–	9.39e-07 ± 2e-08
[2], x2 = 0.6743	–	8.96e-07 ± 2e-08
[2], x2 = 0.7316	–	8.42e-07 ± 1.9e-08
[2], x2 = 0.7894	–	7.23e-07 ± 1.9e-08
[2], x2 = 0.8384	–	6.22e-07 ± 1.8e-08
[2], x2 = 0.8842	–	4.84e-07 ± 1.8e-08
[2], x2 = 0.9288	–	3.29e-07 ± 1.7e-08
[2], x2 = 0.9702	–	1.42e-07 ± 1.6e-08
